Values after ≈ are worked out from the molar mass of the structure shown. Like-named read-outs stand apart in the source and are kept apart here.
Tests used:
[1] = tested on: Enterococcus faecalis ATCC 29212; test: Broth microdilution MIC; format: cell-based
Protocol: (§1) Minimal inhibitory concentrations (MICs) were determined by WuXi Apptec, on behalf of Acurx Pharmaceuticals, Inc., for the Gram-positive pathogens: Enterococcus faecium ATCC 700221 (VRE; vancomycin-resistant), Enterococcus faecalis ATCC 29212, Staphylococcus aureus NRS384 (MRSA; methicillin-resistant), Staphylococcus aureus ATCC 29213 (MSSA; methicillin-sensitive), and Streptococcus pneumoniae ATCC 49619 (PRSP; penicillin-resistant). As a control, Gram-negative Escherichia coli ATCC 25922 was included. All strains were obtained from ATCC with the exception of Staphylococcus aureus NRS384, which was obtained from NARSA (Network on Antimicrobial Resistance in Staphylococcus aureus, now part of BEI resources). Bacteria were cultured according to the manuals provided by the suppliers and stored in 25% glycerol (final concentration) at –80 °C.
(§2) Bacterial strains were streaked out onto MHA plates (Mueller-Hinton II Agar; BD-211438) and incubated at 37 °C for 20 h except for S. pneumoniae and Enterococci, which were streaked on blood agar (Huankai-24070). S. pneumoniae was incubated in 5% CO2. Single colonies were suspended in 5 mL sterile saline, the turbidity was adjusted to 0.20 (Siemens MicroScan turbidity metre; equal to ~1.0 × 10^8 colony forming units (CFU)/mL) and then diluted 200x in MHIIB (Mueller-Hinton II […] (BD-211438)) medium. The MHIIB media was supplemented with 5% Lysed Horse Blood (Shanghai YuanMu Biological Technology Co. Ltd. YM-U161) for S. pneumoniae.
(§3) ACX compounds were dissolved in pure DMSO (Sigma 276855) to a concentration of 20 mg/mL. From this, twofold serial dilutions (from […]) in DMSO were transferred to a 96-well source-plate (Axygen-wipp02280) with pure DMSO as a control. 2 µL from the source plate was then transferred into 96-well culture plates (Costar 3788) and inoculated with 198 µL of the bacterial suspension so that each well contained ~5.0 × 10^5 CFU/mL bacteria, 1% DMSO and serially diluted compounds at 0 µg/mL and 0.0625-64 µg/mL in 100 µl medium. For NRS384, which was tested in a separate experiment, 99 µL of bacterial suspension was added to 1 µL of compound. The plates were incubated in ambient atmosphere at 37 °C for 20 h.

[2] = tested on: Enterococcus faecium ATCC 700221 (VRE; vancomycin-resistant); test: Broth microdilution MIC; format: cell-based; conditions: for MIC: Enterococcus faecium, read-out: Measured MIC; for Measured MIC: Table 2, polC WT, strain ATCC 700221
Protocol: as §1, §2, §3

[3] = tested on: Escherichia coli ATCC 25922; test: Broth microdilution MIC; format: cell-based
Protocol: as §1, §2, §3

[4] = tested on: Staphylococcus aureus ATCC 29213 (MSSA; methicillin-sensitive); test: Broth microdilution MIC; format: cell-based; conditions: read-out: Measured MIC
Protocol: as §1, §2, §3

[5] = tested on: Staphylococcus aureus NRS384 (MRSA; methicillin-resistant); test: Broth microdilution MIC; format: cell-based; conditions: read-out: Measured MIC
Protocol: as §1, §2, §3

[6] = tested on: Streptococcus pneumoniae ATCC 49619 (PRSP; penicillin-resistant); test: Broth microdilution MIC; format: cell-based; conditions: read-out: Measured MIC
Protocol: as §1, §2, §3

[7] = tested on: E. faecium strains with polC mutations (A1281T, F1276I, F1276L, F1276S); test: Cross-resistance MIC of reduced susceptible E. faecium strains; format: cell-based, Enterococcus faecium; conditions: for raise of MIC by A1281T: E. faecium polC A1281T versus WT (Table 2); for MIC: Enterococcus faecium
Protocol: Strains with reduced susceptibility to ACX compounds were generated by WuXi Apptec on behalf of Acurx Pharmaceuticals, Inc., using E. faecium ATCC 700221 as parental strain.
Agar MICs for the wild-type strain were determined on Blood agar (Huankai). Compounds and linezolid were dissolved in 100% DMSO and vancomycin in ultrapure water. Strains were inoculated onto agar plates, incubated at 37 °C for 20-24 h after which colonies were suspended in sterile 0.9% saline at different bacterial concentrations. 5 μL of bacterial suspensions was individually spotted on agar plates supplemented with compounds at different concentrations, resulting in final concentrations of 10^–1, 10^–2, 10^–3, 10^–4, 10^–5, 10^–6, and 10^–7 per spot. After incubation for 20-24 h, bacterial growth was assessed by visual inspection.
For frequency of resistance (FOR) studies, colonies from the agar plate were suspended into sterile 0.9% saline to get 10^8-10^9 CFU bacterial cells per mL. […] The suspensions were also serially diluted with 0.9% saline and spotted onto agar to determine the actual inoculum. All agar plates were incubated at 37 °C for 48 h. FOR was defined as colony number on each compound-containing plate per CFU number of actual inoculum. Resistant colonies were subcultured on the corresponding compound plates to confirm that colonies were resistant and stable.
Confirmed resistant colonies were used for cross-resistance studies, as described above.
Paired-end short read sequencing data from selected mutants (generated by BGISEQ) as well as the corresponding wild-type parental strain was analysed against the reference genomes for E. faecium strain ATCC 700221 (https://genomes.atcc.org/genomes/f9d13a716ccb4f78) using Geneious R10.2.6 (Biomatters Ltd). Variants were called using the Find Variants/SNPs function with a minimum coverage of 10 and a minimum frequency of 0.8. […] This identified the following mutations in the polC gene: D1103Y in strain Efa4; F1276L in strains Efa030, Efa038, and Efa039; F1276I in strains Efa1 and Efa037; F1276S in strain Efa3; A1281T in strains Efa036, Efa040 and Efa041. Strains Efa036, Efa039, and Efa040 each had only one polymorphism identified.

[8] = ATCC29212, E. faecalis ATCC 29212, Table 1, single replicate, read-out: Measured MIC
[9] = E. faecium VRE ATCC 700221, Table 1, single replicate
[10] = ATCC25922, E. coli ATCC 25922, Table 1, single replicate, read-out: Measured MIC
[11] = S. aureus ATCC 29213, Table 1, single replicate
[12] = S. aureus MRSA NRS 384, Table 1, independent experiment
[13] = S. pneumoniae PRSP ATCC 49619, Table 1, single replicate
[14] = read-out: Measured MIC, polC A1281T, strain Efa036, selected on 2 mg/L ACX-641
[15] = read-out: Measured MIC, polC A1281T, strain Efa040, selected on 4 mg/L ACX-671
[16] = read-out: Measured MIC, polC F1276I, strain Efa037, selected on 4 mg/L ACX-641
[17] = read-out: Measured MIC, polC F1276L, strain Efa030, selected on 16 mg/L ACX-728
[18] = read-out: Measured MIC, polC F1276S, strain Efa3, selected on 16 mg/L ACX-728

SMILES | MIC [1, 8] [µg/mL] | MIC [2, 9] [µg/mL] | Measured MIC [2] [µg/mL] | increased potency compared to IBZ ([2]; against Gram-positive bacteria, including MRSA and VRE (Table 1)) | MIC [3, 10] [µg/mL] | MIC [4, 11] [µg/mL] | MIC [5, 12] [µg/mL] | MIC [6, 13] [µg/mL] | raise of MIC by A1281T [7] | MIC [7, 14] [µg/mL] | MIC [7, 15] [µg/mL] | MIC [7, 16] [µg/mL] | MIC [7, 17] [µg/mL] | MIC [7, 18] [µg/mL] | MIC ([1]; ATCC29212, read-out: Measured MIC) [µg/mL] | MIC [2] [µg/mL] | MIC ([3]; ATCC25922, read-out: Measured MIC) [µg/mL] | MIC [4] [µg/mL] | MIC [5] [µg/mL] | MIC [6] [µg/mL]
O=c1[nH]c(NCc2ccc3c(c2)OC(F)(F)O3)nc2c(F)nn(CCO)c12 [ACX-801, 5-(((2,2-difluorobenzo[d][1,3]dioxol-5-yl)methyl)amino)-3-fluoro-1-(2-hydroxyethyl)-1,6-dihydro-7H-pyrazolo[4,3-d]pyrimidin-7-one] | 2 (≈ 5.22 µM) | 1 (≈ 2.61 µM) | 1 | 2- to 4 fold | > 64 | 2 (≈ 5.22 µM) | 2 (≈ 5.22 µM) | 4 (≈ 10.4 µM) | up to 32 fold | 16 | 32 | > 64 | 64 | 32 |  |  |  |  |  | 
CC(=O)NC[C@H]1CN(c2ccc(N3CCOCC3)c(F)c2)C(=O)O1 [LZD, linezolid] |  |  | 4 |  |  |  |  |  |  | 4 | 4 | 4 | 4 | 4 | 2 (≈ 5.93 µM) | 4 (≈ 11.9 µM) | > 64 | 4 (≈ 11.9 µM) | 2 (≈ 5.93 µM) | 1 (≈ 2.96 µM)
O=c1[nH]c(NCc2ccc(Cl)c(Cl)c2)nc2ncn(CCN3CCOCC3)c12 [IBZ, N^2-(3,4-dichlorobenzyl)-7-(2-[1-morpholinyl]ethyl)guanine] | 8 (≈ 18.9 µM) | 2 (≈ 4.72 µM) | 2 |  | > 64 | 8 (≈ 18.9 µM) | 8 (≈ 18.9 µM) | 2 (≈ 4.72 µM) | up to eightfold | 16 | 8 | > 64 | > 64 | 16 |  |  |  |  |  | 
